What follows are molecules tested against IRAK4 (Homo sapiens (Human), UniProt Q9NWZ3) (assay: IRAK-4 AlphaScreen biochemical kinase assay). Conditions: 1 nM IRAK4, 1 mM ATP, 3.5 h at RT.
Outline: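 AlphaScreen read-out: streptavidin beads bind the biotinylated peptide and protein A beads bind the anti-phosphothreonine antibody, so energy transfer reports phosphorylation of the peptide. The kinase is human IRAK-4.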

Chain of IRAK4 (Q9NWZ3 whole entry, species assumed): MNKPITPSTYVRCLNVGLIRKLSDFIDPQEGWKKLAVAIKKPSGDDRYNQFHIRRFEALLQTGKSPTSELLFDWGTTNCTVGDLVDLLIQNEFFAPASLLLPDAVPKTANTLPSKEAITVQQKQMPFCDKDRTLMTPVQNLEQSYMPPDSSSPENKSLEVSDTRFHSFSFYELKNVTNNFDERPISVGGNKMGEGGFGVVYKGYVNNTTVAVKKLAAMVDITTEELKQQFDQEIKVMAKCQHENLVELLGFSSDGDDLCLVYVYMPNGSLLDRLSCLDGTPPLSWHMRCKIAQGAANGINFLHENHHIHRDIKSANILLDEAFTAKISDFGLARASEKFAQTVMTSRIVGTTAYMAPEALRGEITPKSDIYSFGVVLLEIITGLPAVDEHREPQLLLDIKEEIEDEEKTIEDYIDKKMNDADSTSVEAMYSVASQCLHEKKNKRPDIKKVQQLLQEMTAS

SMILES | IC50
COCCOc1cc(-c2cccc(C3(N)CCOC3)n2)cc2c1cnn2-c1cccc(CO)n1 (stereo not drawn) [Example 466, (6-(6-(6-(3-aminotetrahydrofuran-3-yl)pyridin-2-yl)-4-(2-methoxyethoxy)-1H-indazol-1-yl)pyridin-2-yl)methanol] | < 100 nM
COCCOc1cc(-c2cccc(C3(N)CCC3)n2)cc2c1cnn2-c1cncc(CO)n1 [Example 468, (6-(6-(6-(1-aminocyclobutyl)pyridin-2-yl)-4-(2-methoxyethoxy)-1H-indazol-1-yl)pyrazin-2-yl)methanol] | < 100 nM
COCCOc1cc(-c2cccc(C3(N)CCCC3)n2)cc2c1cnn2-c1cccc(CO)n1 [Example 469, (6-(6-(6-(1-aminocyclopentyl)pyridin-2-yl)-4-(2-methoxyethoxy)-1H-indazol-1-yl)pyridin-2-yl)methanol] | < 100 nM
C[C@H](N)c1cccc(-c2ccc3cnn(-c4cccc(C(=O)O)n4)c3c2)n1 [Example 472, 6-{6-[6-((S)-1-Amino-ethyl)-pyridin-2-yl]-indazol-1-yl}-pyridine-2-carboxylic acid] | 1000 to 10000 nM
CCC[C@H](N)c1cccc(-c2cc(C3CCCO3)c3cnn(-c4cccc(CO)n4)c3c2)n1 (stereo partly drawn) [Example 477, (6-(6-(6-((S)-1-aminobutyl)pyridin-2-yl)-4-(tetrahydrofuran-2-yl)-1H-indazol-1-yl)pyridin-2-yl)methanol] | < 100 nM
CCC[C@H](N)c1cccc(-c2cc([C@H]3CC[C@@H](C)O3)c3cnn(-c4cccc(CO)n4)c3c2)n1 [Example 478, (6-(6-(6-((S)-1-aminobutyl)pyridin-2-yl)-4-((2R,5R)-5-methyltetrahydrofuran-2-yl)-1H-indazol-1-yl)pyridin-2-yl)methanol] | < 100 nM
CCC[C@H](N)c1cccc(-c2cc([C@@H]3CC[C@@H](C)O3)c3cnn(-c4cccc(CO)n4)c3c2)n1 [Example 479, (6-(6-(6-((S)-1-aminobutyl)pyridin-2-yl)-4-((2S,5R)-5-methyltetrahydrofuran-2-yl)-1H-indazol-1-yl)pyridin-2-yl)methanol] | < 100 nM
COCCOc1cc(-c2cccc([C@H](C)N)n2)cc2c1cnn2-c1cncc(CO)n1 [Example 481, (S)-(6-(6-(6-(1-aminoethyl)pyridin-2-yl)-4-(2-methoxyethoxy)-1H-indazol-1-yl)pyrazin-2-yl)methanol] | < 100 nM
Cc1cccc(-n2ncc3ccc(-c4cccc(C(N)CC(F)(F)F)n4)cc32)n1 (stereo not drawn) [Example 551, 3,3,3-trifluoro-1-(6-(1-(6-methylpyridin-2-yl)-1H-indazol-6-yl)pyridin-2-yl)propan-1-amine] | 100 to 1000 nM
Cc1cccc(-n2ncc3c(-c4nnc(C)o4)cc(-c4cccc(C(C)N)n4)cc32)n1 (stereo not drawn) [Example 557, 1-(6-(4-(5-methyl-1,3,4-oxadiazol-2-yl)-1-(6-methylpyridin-2-yl)-1H-indazol-6-yl)pyridin-2-yl)ethanamine] | 100 to 1000 nM
Cc1cncc(-n2ncc3ccc(-c4cccc(C(C)N)n4)cc32)n1 (stereo not drawn) [Example 559, 1-(6-(1-(6-methylpyrazin-2-yl)-1H-indazol-6-yl)pyridin-2-yl)ethanamine] | 100 to 1000 nM
N#CC(N)c1cccc(-c2ccc3cnn(-c4cccc(CO)n4)c3c2)n1 (stereo not drawn) [Example 560, 2-amino-2-(6-(1-(6-(hydroxymethyl)pyridin-2-yl)-1H-indazol-6-yl)pyridin-2-yl)acetonitrile] | 1000 to 10000 nM
NC(=O)C(N)c1cccc(-c2ccc3cnn(-c4cccc(CO)n4)c3c2)n1 (stereo not drawn) [Example 561, 2-amino-2-(6-(1-(6-(hydroxymethyl)pyridin-2-yl)-1H-indazol-6-yl)pyridin-2-yl)acetamide] | 100 to 1000 nM
CC(N)c1cccc(-c2ccc3cnn(-c4ccnc(C#N)n4)c3c2)n1 (stereo not drawn) [Example 562, 4-(6-(6-(1-aminoethyl)pyridin-2-yl)-1H-indazol-1-yl)pyrimidine-2-carbonitrile] | 1000 to 10000 nM
CC(N)c1cccc(-c2ccc3cnn(-c4cccc(CO)n4)c3c2)c1 (stereo not drawn) [Example 563, (6-(6-(3-(1-aminoethyl)phenyl)-1H-indazol-1-yl)pyridin-2-yl)methanol] | 100 to 1000 nM
CC(N)c1ccc(F)c(-c2ccc3cnn(-c4cccc(CO)n4)c3c2)n1 (stereo not drawn) [Example 564, (6-(6-(6-(1-aminoethyl)-3-fluoropyridin-2-yl)-1H-indazol-1-yl)pyridin-2-yl)methanol] | 100 to 1000 nM
C[C@H](N)c1cccc(-c2ccc3cnn(-c4nc(CO)ccc4F)c3c2)n1 [Example 565, (S)-(6-(6-(6-(1-aminoethyl)pyridin-2-yl)-1H-indazol-1-yl)-5-fluoropyridin-2-yl)methanol] | 100 to 1000 nM
CCC[C@@H](c1cccc(-c2ccc3cnn(-c4cccc(CO)n4)c3c2)n1)N(C)C [Example 566, (S)-(6-(6-(6-(1-(dimethylamino)butyl)pyridin-2-yl)-1H-indazol-1-yl)pyridin-2-yl)methanol] | 100 to 1000 nM
CNC(=O)C(N)c1cccc(-c2ccc3cnn(-c4cccc(CO)n4)c3c2)n1 (stereo not drawn) [Example 567, 2-amino-2-(6-(1-(6-(hydroxymethyl)pyridin-2-yl)-1H-indazol-6-yl)pyridin-2-yl)-N-methylacetamide] | 100 to 1000 nM
C[S+]([O-])CC(N)c1cccc(-c2ccc3cnn(-c4cccc(CO)n4)c3c2)n1 (stereo not drawn) [Example 568, (6-(6-(6-(1-amino-2-(methylsulfinyl)ethyl)pyridin-2-yl)-1H-indazol-1-yl)pyridin-2-yl)methanol] | 1000 to 10000 nM
CCC[C@H](N)c1cccc(-c2cc(Cl)c3cnn(-c4nccc(C(F)F)n4)c3c2)n1 [Example 570, (S)-1-(6-(4-chloro-1-(4-(difluoromethyl)pyrimidin-2-yl)-1H-indazol-6-yl)pyridin-2-yl)butan-1-amine] | < 100 nM
OCc1cccc(-n2ncc3ccc(-c4cccc(C5CCCN5)n4)cc32)n1 (stereo not drawn) [Example 571, (6-(6-(6-(pyrrolidin-2-yl)pyridin-2-yl)-1H-indazol-1-yl)pyridin-2-yl)methanol] | 100 to 1000 nM
CCC[C@H](N)c1cccc(-c2cc(OC)c3cnn(-c4nccc(C(F)F)n4)c3c2)n1 [Example 572, (S)-1-(6-(1-(4-(difluoromethyl)pyrimidin-2-yl)-4-methoxy-1H-indazol-6-yl)pyridin-2-yl)butan-1-amine] | < 100 nM

Next, values leading:

IC50 | SMILES
< 100 nM | COCCOc1cc(-c2cccc([C@@H](N)CC(C)(F)F)n2)cc2c1cnn2-c1cccc(CO)n1 [Example 455, (S)-(6-(6-(6-(1-amino-3,3-difluorobutyl)pyridin-2-yl)-4-(2-methoxyethoxy)-1H-indazol-1-yl)pyridin-2-yl)methanol]
< 100 nM | C[C@H](N)c1cccc(-c2cc(OCCCO)c3cnn(-c4cccc(CO)n4)c3c2)n1 [Example 459, (S)-3-((6-(6-(1-aminoethyl)pyridin-2-yl)-1-(6-(hydroxymethyl)pyridin-2-yl)-1H-indazol-4-yl)oxy)propan-1-ol]
< 100 nM | CCC[C@H](N)c1cccc(-c2cc(OCCCO)c3cnn(-c4cccc(CO)n4)c3c2)n1 [Example 460, (S)-3-((6-(6-(1-aminobutyl)pyridin-2-yl)-1-(6-(hydroxymethyl)pyridin-2-yl)-1H-indazol-4-yl)oxy)propan-1-ol]
< 100 nM | CC[C@H](N)c1cccc(-c2cc(OCCCO)c3cnn(-c4cccc(CO)n4)c3c2)n1 [Example 461, (S)-3-((6-(6-(1-aminopropyl)pyridin-2-yl)-1-(6-(hydroxymethyl)pyridin-2-yl)-1H-indazol-4-yl)oxy)propan-1-ol]
1000 to 10000 nM | CCC[C@H](N)c1cccc(-c2cc(C#CC(C)(C)O)c3cnn(-c4cccc(CO)n4)c3c2)n1 [Example 462, (S)-4-(6-(6-(1-aminobutyl)pyridin-2-yl)-1-(6-(hydroxymethyl)pyridin-2-yl)-1H-indazol-4-yl)-2-methylbut-3-yn-2-ol]
100 to 1000 nM | COCCOc1cc(-c2cccc(C3(N)COC3)n2)cc2c1cnn2-c1cccc(CO)n1 [Example 465, (6-(6-(6-(3-aminooxetan-3-yl)pyridin-2-yl)-4-(2-methoxyethoxy)-1H-indazol-1-yl)pyridin-2-yl)methanol]
< 100 nM | COCCOc1cc(-c2cccc(C3(N)CCC3)n2)cc2c1cnn2-c1cccc(CO)n1 [Example 467, (6-(6-(6-(1-aminocyclobutyl)pyridin-2-yl)-4-(2-methoxyethoxy)-1H-indazol-1-yl)pyridin-2-yl)methanol]
100 to 1000 nM | CCC[C@H](N)c1cccc(-c2cc(OCCS(C)(=O)=O)c3cnn(-c4cccc(CO)n4)c3c2)n1 [Example 470, (S)-(6-(6-(6-(1-aminobutyl)pyridin-2-yl)-4-(2-(methylsulfonyl)ethoxy)-1H-indazol-1-yl)pyridin-2-yl)methanol]
< 100 nM | CCC[C@H](N)c1cccc(-c2cc(OCC(C)(C)O)c3cnn(-c4cccc(CO)n4)c3c2)n1 [Example 471, (S)-1-((6-(6-(1-aminobutyl)pyridin-2-yl)-1-(6-(hydroxymethyl)pyridin-2-yl)-1H-indazol-4-yl)oxy)-2-methylpropan-2-ol]
< 100 nM | CCC[C@H](N)c1cccc(-c2cc(OCCOC)c3cnn(-c4cncc(CO)n4)c3c2)n1 [Example 480, (S)-(6-(6-(6-(1-aminobutyl)pyridin-2-yl)-4-(2-methoxyethoxy)-1H-indazol-1-yl)pyrazin-2-yl)methanol]
< 100 nM | CC[C@H](N)c1cccc(-c2cc(OCCOC)c3cnn(-c4cncc(CO)n4)c3c2)n1 [Example 482, (S)-(6-(6-(6-(1-aminopropyl)pyridin-2-yl)-4-(2-methoxyethoxy)-1H-indazol-1-yl)pyrazin-2-yl)methanol]
< 100 nM | COCCOc1cc(-c2cccc([C@@H](N)CCCO)n2)cc2c1cnn2-c1cccc(CO)n1 [Example 484, (S)-4-amino-4-(6-(1-(6-(hydroxymethyl)pyridin-2-yl)-4-(2-methoxyethoxy)-1H-indazol-6-yl)pyridin-2-yl)butan-1-ol]
< 100 nM | CCC[C@H](N)c1cccc(-c2cc(C(C)OC)c3cnn(-c4cccc(CO)n4)c3c2)n1 (stereo partly drawn) [Example 569, (6-(6-(6-((S)-1-aminobutyl)pyridin-2-yl)-4-(1-methoxyethyl)-1H-indazol-1-yl)pyridin-2-yl)methanol]

Source: US10246456B2, “IRAK4 inhibiting agents” (BIOGEN MA INC., priority 2014, dated 2019)
